Data set [1] relates to RSV-A. Put plainly: RSV-A cytopathic effect (CPE) reduction assay in HEp-2 cells, MTS read-out. It counts as cell-based, human respiratory syncytial virus, RSV-A strain Long. Background: Damage to the host cells serves as the signal in cytopathic effect assays.
Data set [2] can be described thus: in vitro. The settings on record: human.
A short description of data set [3]: in vitro. The settings on record: human. The source holds these as a separate data set.
Another data set concerns the target AAK1 (Homo sapiens, UniProt Q2M2I8). Put plainly: LanthaScreen Eu Kinase Binding Assay for AAK1. (TR-FRET usually uses a lanthanide donor and a delayed reading to cut background.)
In a further data set the test system is VEEV (TC-83). Kind of data set: microbe, parasite or virus in culture. The settings on record: Venezuelan equine encephalitis virus, U-87 MG, 18 h, read-out: VEEV EC50. It is filed as cell-based.
Another data set relates to SARS-CoV-2. Put plainly: microbe, parasite or virus in culture. It is filed as cell-based, SARS-CoV-2 BetaCov/Belgium/GHB-03021/2020. The settings on record: Severe acute respiratory syndrome coronavirus 2, 96 h, read-out: SARS-CoV-2 EC50.
A short description of data set [4]: in vitro. The settings on record: African green monkey.
In data set [5] the target is adaptor-associated kinase 1 (AAK1). More on the design: method as in Verdonck et al., 2019. The settings on record: ref Verdonck et al., 2019; read-out: AAK1 IC50 (enzymatic assay); cited from earlier work.
Data set [6] deals with RSV-A. Kind of data set: Anti-RSV-A activity in A549 cells, viral RNA in supernatant by RT-qPCR. It is filed as cell-based, RSV-A strain Long. The settings on record: human respiratory syncytial virus, read-out: RSV-A EC50 (A549, viral RNA levels). Background: Real-time PCR tracks product formation cycle by cycle.
Setting [7] is: human respiratory syncytial virus, HEp-2, 96 h; read-out: RSV-A EC50.
Where [8] appears, read: human respiratory syncytial virus, HEp-2, 96 h, read-out: RSV-A EC50.

Structures are written as SMILES.

Sequence of AAK1 (Q2M2I8 whole entry): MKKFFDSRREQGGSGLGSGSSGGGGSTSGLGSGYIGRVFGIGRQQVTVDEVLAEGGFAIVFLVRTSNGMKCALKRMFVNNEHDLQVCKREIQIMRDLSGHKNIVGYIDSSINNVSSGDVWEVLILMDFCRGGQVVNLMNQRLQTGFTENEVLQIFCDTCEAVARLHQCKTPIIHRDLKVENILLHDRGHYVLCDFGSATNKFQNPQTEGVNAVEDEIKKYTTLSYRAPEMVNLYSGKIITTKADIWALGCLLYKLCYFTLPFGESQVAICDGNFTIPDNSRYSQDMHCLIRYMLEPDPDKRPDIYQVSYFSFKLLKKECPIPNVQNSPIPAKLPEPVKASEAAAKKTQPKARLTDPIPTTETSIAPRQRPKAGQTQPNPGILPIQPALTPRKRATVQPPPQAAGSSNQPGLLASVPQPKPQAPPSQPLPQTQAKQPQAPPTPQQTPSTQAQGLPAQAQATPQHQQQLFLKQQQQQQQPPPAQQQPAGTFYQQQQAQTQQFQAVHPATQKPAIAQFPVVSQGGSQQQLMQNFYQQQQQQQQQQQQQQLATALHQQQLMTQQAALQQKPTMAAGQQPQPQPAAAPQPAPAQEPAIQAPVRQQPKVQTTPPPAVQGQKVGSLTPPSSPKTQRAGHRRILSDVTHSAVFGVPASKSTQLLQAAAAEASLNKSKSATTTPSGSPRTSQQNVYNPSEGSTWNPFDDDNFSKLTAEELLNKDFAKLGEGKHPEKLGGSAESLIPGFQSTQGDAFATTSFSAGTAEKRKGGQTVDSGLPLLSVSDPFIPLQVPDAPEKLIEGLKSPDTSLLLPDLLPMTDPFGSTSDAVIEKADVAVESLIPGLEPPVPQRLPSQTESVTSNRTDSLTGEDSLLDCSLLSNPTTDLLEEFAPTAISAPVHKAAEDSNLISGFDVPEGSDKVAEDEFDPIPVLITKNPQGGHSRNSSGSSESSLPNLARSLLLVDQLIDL

With `COc1cc(OC)cc(-c2cnc3c(c2)c(C#Cc2cccnc2)cn3C)c1` [Compound 7a], the EC50 is 1.65 ± 0.5 µM with RSV-A [1] (setting [7]) and above 10 µM in the data set on VEEV (TC-83). In the data set “in vitro [2]”, this compound showed a CC50 at 4 days of 30 ± 28.3 µM. Besides, in the data set “in vitro [3]”, the CC50 was above 10 µM. The “AAK1 affinity (in words)” value on AAK1 is recorded as “no AAK1 affinity”. This compound had an IC50 at AAK1 above 10 µM.
Take `CCN(CC)C(=O)c1cccc(-c2cnc3[nH]cc(C#Cc4cccnc4)c3c2)c1` [Compound 8k]: the values for the EC50 in the data set on SARS-CoV-2, in the data set with RSV-A [1] (setting [7]) and in the data set on VEEV (TC-83) were 10.2 ± 0.14 µM, 0.97 ± 0.18 µM and above 10 µM, respectively. For the same compound, the CC50 in the data set “in vitro [4]” was 88.5 ± 1.41 µM; in the data set “in vitro [3]” it was above 10 µM. Further, the CC50 at 4 days in “in vitro [2]” was 4.04 ± 0.14 µM.
For `COc1ccc(-c2cnc3[nH]cc(C#Cc4cccnc4)c3c2)cc1OC` [Compound 1], the “selectivity index (SI)” value with RSV-A [1] (CC50 HEp-2 / EC50 RSV-A) is reported as 10.5. Besides, the results for the EC50 in the data set on RSV-A [1] (setting [8]) and in the data set on VEEV (TC-83) were 0.19 ± 0.13 µM and 1.22 ± 0.22 µM, respectively. In the data set “in vitro [2]”, this compound yielded a CC50 at 4 days of 2 µM. In the data set “in vitro [3]”, this compound had a CC50 above 10 µM. In addition, the 50% inhibitory concentration (IC50) is 0.0042 µM at AAK1 and 0.004 µM in [5].
Consider `COCCNC(=O)c1cccc(-c2cnc3[nH]cc(C#Cc4cccnc4)c3c2)c1` [Compound 8h], for which the concentration giving a half-maximal response (EC50) in the data set on SARS-CoV-2 is 2.13 ± 1.91 µM; in the data set with RSV-A [1] (setting [7]), 0.72 ± 0.46 µM; with VEEV (TC-83) it was 2.48 ± 1.27 µM. For the same compound, the CC50 in “in vitro [4]” was above 100 µM; in the data set “in vitro [3]” it was above 10 µM. Besides, in “in vitro [2]”, the CC50 at 4 days was 17.3 ± 7.88 µM.
Take `COc1cncc(C#Cc2c[nH]c3ncc(-c4cccc(C(=O)NC5CC5)c4)cc23)c1` [Compound 9b]: the values for the concentration giving a half-maximal response (EC50) in the data set on RSV-A [1] (setting [7]) and in the data set on VEEV (TC-83) were 0.24 ± 0.057 µM and 1.39 ± 0.2 µM, respectively. Further, the CC50 at 4 days in the data set “in vitro [2]” is 22.2 ± 3.68 µM. In addition, the CC50 in the data set “in vitro [3]” was 8.99 ± 1.6 µM.
Turning to `N#C[C@@]1(c2ccc3c(N)ncnn23)O[C@H](CO)[C@@H](O)[C@H]1O` [GS-441524, reference compound], in the data set with SARS-CoV-2, the EC50 stood at 0.7 ± 0.07 µM.
`Cc1cncc(C#Cc2c[nH]c3ncc(-c4cccc(C(=O)NC5CC5)c4)cc23)c1` [Compound 9c]: the EC50 stood at 1.82 ± 0.83 µM in the data set on SARS-CoV-2, 0.18 ± 0.085 µM in the data set on RSV-A [1] (setting [7]) and 1.8 ± 0.32 µM with VEEV (TC-83). Also, the CC50 in the data set “in vitro [4]” is above 100 µM; in “in vitro [3]”, above 10 µM. This compound registered a CC50 at 4 days in “in vitro [2]” above 50 µM.
With `COc1cc(OC)cc(-c2cnc3[nH]cc(C#Cc4cccnc4)c3c2)c1` [Compound 4d], the “selectivity index (SI)” value in the data set on RSV-A [1] (CC50 HEp-2 / EC50 RSV-A) is listed as 90. The EC50 was 0.55 ± 0.41 µM in the data set on RSV-A [1] (setting [8]); 0.05 µM in the data set with RSV-A [6] (A549, 120 h); above 10 µM in the data set with VEEV (TC-83). The same compound displayed a CC50 at 4 days in “in vitro [2]” above 50 µM. The compound further showed a CC50 in the data set “in vitro [3]” above 10 µM. Also, the “AAK1 affinity (in words)” value on AAK1 is listed as “low nanomolar AAK1 affinity”. At AAK1, the 50% inhibitory concentration (IC50) worked out at 0.0062 µM.
For `COc1cc(OC)cc(-c2cnc3c(c2)c(C#Cc2cccnc2)cn3CC(C)C)c1` [Compound 7c], the 50% effective concentration (EC50) in the data set on RSV-A [1] (setting [7]) and in the data set on VEEV (TC-83) was above 10 µM in each case. In addition, in the data set “in vitro [2]”, the CC50 at 4 days is 10.7 ± 0.98 µM. In addition, in the data set “in vitro [3]”, the CC50 is above 10 µM.
In the case of `COCCOc1ccc(-c2cnc3[nH]cc(C#Cc4cccnc4)c3c2)cc1` [Compound 4f], in the data set on RSV-A [1] (HEp-2 cells), the “anti-RSV activity (in words)” value was “completely devoid of anti-RSV activity”. Also, the EC50 in the data set on RSV-A [1] (setting [7]) was 30 ± 28.3 µM; in the data set with VEEV (TC-83) it was above 10 µM. Moreover, the CC50 at 4 days in the data set “in vitro [2]” was above 50 µM. In “in vitro [3]”, this compound registered a CC50 above 10 µM.
In the case of `COc1cccc(C#Cc2c[nH]c3ncc(-c4cccc(C(=O)NC5CC5)c4)cc23)c1` [Compound 9g], the 50% effective concentration (EC50) was 0.1 ± 0.19 µM in the data set on RSV-A [1] (setting [7]) and 5.27 ± 1.01 µM with VEEV (TC-83). In addition, the CC50 at 4 days in “in vitro [2]” was above 20 µM. The compound also gave a CC50 in the data set “in vitro [3]” above 10 µM.
Turning to `CCNC(=O)c1ccc(-c2cnc3[nH]cc(C#Cc4cccnc4)c3c2)cc1` [Compound 8b], the EC50 with SARS-CoV-2 came to 0.58 ± 0.05 µM; in the data set with RSV-A [1] (setting [7]), 0.3 ± 0.28 µM; with RSV-A [6] (120 h, A549 cells, RT-qPCR of culture supernatant, MOI 0.1, 5 days) it was 0.01 µM; with VEEV (TC-83), 6.01 ± 1.81 µM. Moreover, the CC50 in the data set “in vitro [4]” was above 100 µM; in the data set “in vitro [3]”, above 10 µM. The same compound came in with a CC50 at 4 days in “in vitro [2]” of 50 µM. Moreover, on AAK1, the “AAK1 affinity (in words)” value is “low nanomolar AAK1 affinity”. This compound also registered a half-inhibitory concentration (IC50) at AAK1 of 0.004 µM.
Consider `O=C(NC1CC1)c1cccc(-c2cnc3[nH]cc(C#Cc4ccccc4)c3c2)c1` [Compound 9d], for which the EC50 in the data set on RSV-A [1] (setting [7]) was 0.82 ± 0.22 µM; in the data set with VEEV (TC-83) it was above 10 µM. In addition, in the data set “in vitro [2]”, the CC50 at 4 days was above 50 µM. The compound also registered a CC50 in the data set “in vitro [3]” above 10 µM.
As for `C(#Cc1c[nH]c2ncc(-c3ccsc3)cc12)c1cccnc1` [Compound 4k], the concentration for a half-maximal effect (EC50) with RSV-A [1] (setting [7]) is 4.83 ± 1.44 µM; with VEEV (TC-83), above 10 µM. In “in vitro [2]”, this compound yielded a CC50 at 4 days above 50 µM. In addition, the CC50 in the data set “in vitro [3]” was above 10 µM.
Turning to `COc1cccc(-c2cnc3[nH]cc(C#Cc4cccnc4)c3c2)c1` [Compound 4b], the concentration giving a half-maximal response (EC50) is 0.67 ± 0.43 µM with RSV-A [1] (setting [7]) and above 10 µM in the data set with VEEV (TC-83). The CC50 at 4 days in “in vitro [2]” amounted to 6 ± 5.66 µM. In the data set “in vitro [3]”, the CC50 was above 10 µM.

As a reminder, the EC50 is the concentration needed to bring the measured effect to its halfway point. As a reminder, the IC50 is the point on the concentration scale where inhibition reaches its midpoint.
